Test results reported in PubChem BioAssay AID330 (DTP/NCI, 2004).
Where “and” joins values, the source holds several entries; their conditions need not be identical. Equal entries are not always repeated. Inconclusive results and toxic doses are left out. The calls were made as follows: active = survival T/C of 150% or more; inactive = T/C below 125% in these data. Square brackets hold non-standard residues; d marks the D form. Peptide text beside a SMILES is read from it. * marks the point of attachment. ξ: configuration not given here. ξF = NC(Cc1ccccc1)C(=O)O; Bz = O=C(c1ccccc1)*

System: P388 leukemia ip, CD2F1 mice, survival T/C
Assay: NCI In Vivo Anticancer Drug Screen. Data for tumor model P388 Leukemia (intraperitoneal) in CD2F1 (CDF1) mice
Conditions: endpoint: median survival time, higher = longer survival
In short: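 Mice carrying the transplanted tumor received test compound or vehicle. Survival was recorded in each group, and the value is the treated-group measurement divided by that of the vehicle-treated control group.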

[1] = dose: 60.0 mg/kg/injection, schedule: Q01DX005 (ip), vehicle: saline with Tween-80
[2] = dose: 120.0 mg/kg/injection, schedule: Q01DX005 (ip), vehicle: saline with Tween-80
[3] = dose: 240.0 mg/kg/injection, schedule: Q01DX005 (ip), vehicle: saline with Tween-80
[4] = dose: 50.0 mg/kg/injection, schedule: Q01DX009 (ip), vehicle: saline
[5] = dose: 100.0 mg/kg/injection, schedule: Q01DX009 (ip), vehicle: saline
[6] = dose: 200.0 mg/kg/injection, schedule: Q01DX009 (ip), vehicle: saline
[7] = dose: 50.0 mg/kg/injection, schedule: Q01DX009 (ip), vehicle: Klucel (hydroxypropylcellulose) (HPC)
[8] = dose: 100.0 mg/kg/injection, schedule: Q01DX009 (ip), vehicle: Klucel (hydroxypropylcellulose) (HPC)
[9] = dose: 200.0 mg/kg/injection, schedule: Q01DX009 (ip), vehicle: Klucel (hydroxypropylcellulose) (HPC)
[10] = dose: 50.0 mg/kg/injection, schedule: Q01DX005 (ip), vehicle: saline
[11] = dose: 100.0 mg/kg/injection, schedule: Q01DX005 (ip), vehicle: saline
[12] = dose: 200.0 mg/kg/injection, schedule: Q01DX005 (ip), vehicle: saline
[13] = dose: 100.0 mg/kg/injection, schedule: Q04DX003 (ip), vehicle: saline
[14] = dose: 200.0 mg/kg/injection, schedule: Q04DX003 (ip), vehicle: saline
[15] = dose: 400.0 mg/kg/injection, schedule: Q04DX003 (ip), vehicle: saline
[16] = dose: 60.0 mg/kg/injection, schedule: Q01DX005 (ip), vehicle: Klucel (hydroxypropylcellulose) (HPC)
[17] = dose: 120.0 mg/kg/injection, schedule: Q01DX005 (ip), vehicle: Klucel (hydroxypropylcellulose) (HPC)
[18] = dose: 240.0 mg/kg/injection, schedule: Q01DX005 (ip), vehicle: Klucel (hydroxypropylcellulose) (HPC)
[19] = dose: 50.0 mg/kg/injection, schedule: Q01DX005 (ip), vehicle: saline with Tween-80
[20] = dose: 100.0 mg/kg/injection, schedule: Q01DX005 (ip), vehicle: saline with Tween-80
[21] = dose: 50.0 mg/kg/injection, schedule: Q01DX005 (ip), vehicle: Klucel (hydroxypropylcellulose) (HPC)
[22] = dose: 100.0 mg/kg/injection, schedule: Q01DX005 (ip), vehicle: Klucel (hydroxypropylcellulose) (HPC)
[23] = dose: 200.0 mg/kg/injection, schedule: Q01DX005 (ip), vehicle: Klucel (hydroxypropylcellulose) (HPC)

Measured: T/C

O=C1C=CC(=O)N1c1ccc(Cl)cc1Cl
inactive: dose: 3.12 mg/kg/injection, schedule: Q04DX003 (ip), vehicle: saline with Tween-80 105 % of control | dose: 6.25 mg/kg/injection, schedule: Q04DX003 (ip), vehicle: saline with Tween-80 109 % of control | dose: 12.5 mg/kg/injection, schedule: Q04DX003 (ip), vehicle: saline with Tween-80 96 % of control

Clc1ncnc2c1ncn2C1CCCCO1 (configuration not stated)
inactive: dose: 50.0 mg/kg/injection, schedule: Q04DX003 (ip), vehicle: saline with Tween-80 104 % of control | dose: 100.0 mg/kg/injection, schedule: Q01DX009 (ip), vehicle: other 95 % of control | dose: 100.0 mg/kg/injection, schedule: Q04DX003 (ip), vehicle: saline with Tween-80 100 % of control | dose: 200.0 mg/kg/injection, schedule: Q01DX009 (ip), vehicle: other 95 % of control | dose: 200.0 mg/kg/injection, schedule: Q04DX003 (ip), vehicle: saline with Tween-80 100 % of control | dose: 400.0 mg/kg/injection, schedule: Q04DX003 (ip), vehicle: saline with Tween-80 100 % of control

O=C(NNC(=S)NC1OC(CO)C(O)C(O)C1O)c1cccc(C(=O)NNC(=S)NC2OC(CO)C(O)C(O)C2O)n1 (configuration not stated)
inactive: [1] 97 % of control | dose: 60.0 mg/kg/injection, schedule: Q01DX005 (ip), vehicle: saline 106 % of control | [2] 100 % of control | dose: 120.0 mg/kg/injection, schedule: Q01DX005 (ip), vehicle: saline 106 % of control | [3] 96 % of control | dose: 240.0 mg/kg/injection, schedule: Q01DX005 (ip), vehicle: saline 101 % of control

Cc1ncc(Cn2c(C)c(CCO)sc2=S)c(N)n1
inactive: [4] 99 % of control | [5] 101 % of control | [6] 108 % of control

Nn1nnc(-c2ccccc2)n1
inactive: [7] 96 % of control | [8] 96 % of control | [9] 97 % of control

O=C(O)CC(Nc1ccc([N+](=O)[O-])cc1[N+](=O)[O-])C(=O)O (configuration not stated)
inactive: [10] 100 % of control | [11] 106 % of control | [12] 103 % of control

COc1nc(NC2OC(COC(C)=O)C(OC(C)=O)C(OC(C)=O)C2OC(C)=O)c2ccoc2n1 (configuration not stated)
inactive: [1] 100 % of control | [2] 101 % of control | [3] 98 % of control

COc1cc2c(cc1O)C(=O)c1[nH]c3ccccc3c1CC2
inactive: [13] 107 % of control | [14] 107 % of control | [15] 101 % of control

O=c1[nH]c2cc(Cl)ccc2nc1/C=C(\O)c1ccccn1
inactive: [16] 92 % of control | [17] 91 % of control | [18] 93 % of control

C=C(C1OC2OC(C)(C)OC2C1OC)P(=O)(OC(C)C)OC(C)C (configuration not stated)
inactive: dose: 100.0 mg/kg/injection, schedule: Q04DX002 (ip), vehicle: saline with Tween-80 98 % of control | dose: 200.0 mg/kg/injection, schedule: Q04DX002 (ip), vehicle: saline with Tween-80 98 % of control

Cc1ccc(/C=C/C(=O)/C=C/c2ccc(C)o2)o1
inactive: dose: 25.0 mg/kg/injection, schedule: Q01DX005 (ip), vehicle: DMSO 107 % of control | dose: 50.0 mg/kg/injection, schedule: Q01DX005 (ip), vehicle: DMSO 104 % of control | [19] 99 % of control | dose: 100.0 mg/kg/injection, schedule: Q01DX005 (ip), vehicle: DMSO 104 % of control | [20] 96 % of control | dose: 200.0 mg/kg/injection, schedule: Q01DX005 (ip), vehicle: DMSO 97 % of control | dose: 200.0 mg/kg/injection, schedule: Q01DX005 (ip), vehicle: saline with Tween-80 100 % of control | dose: 400.0 mg/kg/injection, schedule: Q01DX005 (ip), vehicle: DMSO 101 % of control

Nc1nnc(CCC(=O)Nc2cc(Cl)c(Cl)cc2Cl)n1N
inactive: [1] 108 % of control | [2] 111 % of control | [3] 121 % of control

COC(=O)/C=C/c1c[nH]c2nccnc12
inactive: dose: 12.5 mg/kg/injection, schedule: Q01DX009 (ip), vehicle: Klucel (hydroxypropylcellulose) (HPC) 98 % of control | dose: 25.0 mg/kg/injection, schedule: Q01DX009 (ip), vehicle: Klucel (hydroxypropylcellulose) (HPC) 100 % of control | [7] 102 % of control | [8] 100 % of control | [9] 98 % of control

NC1C[S][Sn]2([O]C1=O)[O]C(=O)C(N)C[S]2 (configuration not stated)
inactive: [21] 99 % of control | [22] 100 % of control | [23] 100 % of control

COc1cc(N)c2c(c1N)C(=O)c1ccccc1C2=O
inactive: [21] 98 % of control | [22] 101 % of control | [23] 97 % of control

CCn1c2ccccc2c2cc(N)c(N=Nc3cc(OC)c(N=Nc4ccc([N+](=O)[O-])cc4)cc3OC)cc21
inactive: [7] 104 % of control | [8] 105 % of control | [9] 112 % of control

O=C(NC(COC1OC(CO)C(O)C(O)C1O)C(O)c1ccccc1)c1ccccc1 (configuration not stated)
inactive: [7] 107 % of control | [4] 90 % of control | [8] 108 % of control | [5] 102 % of control | [9] 113 % of control | [6] 108 % of control

O=C(CNC(=O)c1ccccc1)NCC(=O)NC(Cc1ccccc1)C(=O)O (stereo not drawn) (Bz-Gly-Gly-[ξF]-OH)
inactive: [19] 96 % of control | [20] 100 % of control

CCN(CC)SC(=S)SN(CC)CC
inactive: dose: 50.0 mg/kg/injection, schedule: Q04DX003 (ip), vehicle: saline 98 % of control | [13] 96 % of control | [14] 98 % of control | [15] 104 % of control

Brc1ccc(N=C=C(c2ccccc2)c2ccccc2)cc1
inactive: dose: 50.0 mg/kg/injection, schedule: Q01DX009 (ip), vehicle: saline with Tween-80 95 % of control | dose: 100.0 mg/kg/injection, schedule: Q01DX009 (ip), vehicle: saline with Tween-80 100 % of control | dose: 200.0 mg/kg/injection, schedule: Q01DX009 (ip), vehicle: saline with Tween-80 104 % of control

CCOC(=O)C1CCCCC12OCCO2 (configuration not stated)
inactive: [10] 95 % of control | [11] 96 % of control | [12] 95 % of control

O=C(O)CSC(CC(=O)O)C(=O)O (configuration not stated)
inactive: dose: 25.0 mg/kg/injection, schedule: Q01DX009 (ip), vehicle: saline 97 % of control | [4] 96 % of control | [5] 100 % of control | [6] 88 % of control

COc1cc(OC)c(NC(=O)C2=C(C)NC(C)=C(C(=O)Nc3cc(Cl)c(OC)cc3OC)C2c2cccc([N+](=O)[O-])c2)cc1Cl
inactive: dose: 15.0 mg/kg/injection, schedule: Q01DX005 (ip), vehicle: Klucel (hydroxypropylcellulose) (HPC) 101 % of control | dose: 30.0 mg/kg/injection, schedule: Q01DX005 (ip), vehicle: Klucel (hydroxypropylcellulose) (HPC) 100 % of control | [16] 101 % of control and 93 % of control

CCOC1[N-]CC(C)C(OCC)N1.CCOC1[N-]CC(C)C(OCC)N1.[Cl][Pd][Cl] (configuration not stated)
inactive: [16] 102 % of control | [17] 106 % of control | [18] 107 % of control

NC(N)=NOCC[C@@H](N)C(=O)O
inactive: [10] 100 % of control | [11] 99 % of control | [12] 101 % of control | dose: 400.0 mg/kg/injection, schedule: Q01DX005 (ip), vehicle: saline 91 % of control | dose: 1000.0 mg/kg/injection, schedule: Q01DX001 (ip), vehicle: saline 95 % of control

Cc1snnc1-c1ccccc1
inactive: [21] 105 % of control | [22] 105 % of control | [23] 96 % of control

N#CC(N)(C#N)C(N)=O
inactive: dose: 100.0 mg/kg/injection, schedule: Q01DX001 (ip), vehicle: saline 101 % of control | dose: 200.0 mg/kg/injection, schedule: Q01DX001 (ip), vehicle: saline 101 % of control | dose: 400.0 mg/kg/injection, schedule: Q01DX001 (ip), vehicle: saline 103 % of control

CCOC(=S)SCC(=O)NC
inactive: [4] 98 % of control | [5] 107 % of control | [6] 104 % of control
